The text below walks through data of patent publication US7741023B2, “Method for predicting immune response to neoplastic disease based on mRNA expression profile in neoplastic cells and stimulated leukocytes” (Hitachi Chemical Co., Ltd., priority 2005, dated 2010).

For the test, the system named is TNF superfamily subtype 3 mRNA. Put plainly: effect of dietary components on HAG-induced TNF superfamily subtype 3 mRNA in whole blood. The class given is cell-based, human. To be noted: 100 nM, pre-incubation 37° C. 1 hour, then HAG; one individual, FIG. 10. The procedure:
Triplicate aliquots of 50 μL each of heparinized whole blood was incubated with 200 μg/mL HAG at 37° C. for 2 hours. Then blood samples were applied to 96-well filterplates to trap leukocytes, and cell lysates were transferred to 96-well oligo(dT)-immobilized microplates for isolation of poly(A)^+ mRNA as described above. cDNA was synthesized on the microplates and was used for real-time polymerase chain reaction (PCR) in 384-well plates by monitoring SYBR Green fluorescence (see Morrison et al., Quantification of low-copy transcripts by continuous SYBR Green I monitoring during amplification. Biotechniques 1998; 24:954-8, 960, 96). […] The Ct was determined by analytical software (SDS, ABI). The PCR conditions were carefully optimized, so that a single appropriate peak was detected on melting curve analysis without any primer dimers. To validate the assay conditions, synthetic RNA34 was spiked into the lysis buffer, and this RNA34 was also quantitated by real time PCR. […] The Ct was set equal to the PCR cycle where certain amounts of PCR products were generated, and delta Ct (ΔCt) was also calculated by subtracting the Ct values of the un-stimulated samples from those of the stimulated samples. Since Ct is a log scale, 1 ΔCt means double or one half in quantity, and a negative ΔCt indicates an increase in expression. […]

`O=c1c(O)c(-c2ccc(O)c(O)c2)oc2cc(O)cc(O)c12` [quercetin]: the “HAG-induced TNF superfamily subtype 3 expression in blood pre-exposed to dietary component” value is “significant (p=0.03) induction”.
